Reference: patent US4788197A, “Pyrazine derivatives useful as platelet aggregation inhibitors” (Terumo Kabushiki Kaisha, priority 1985, dated 1988)
Like-named read-outs stand apart in the source and are kept apart here.

Experiments:
platelet aggregation = experiment: Platelet aggregation-inhibiting action (Born's turbidimetric method, platelet-rich plasma); type: cell-based, rabbit; conditions: Oryctolagus cuniculus, 0.05 h
Experimental: Nine volumes of blood was drawn from the carotid artery of a rabbit using a syringe containing one volume of 3.8% solution of sodium citrate. The blood was centrifuged to obtain platelet-rich plasma (PRP: 7×10^5 platelets/μl).
In a cuvette was placed 268 μl of the PRP, which was warmed in an isothermic bath at 37° C. for 2 minutes. To the cuvette was added 2 μl of an ethanol solution of a pyrazine derivative to be tested, followed by an incubation for 3 minutes. To the incubate was added a solution of a platelet-aggregation inducer, arachidonic acid or collagen. Measurement was made by Born's turbidimetric method (for example, see J. Physiol., vol. 168, p. 178, 1968). 50% inhibitory concentration for the platelet aggregation caused by arachidonic acid (50 μmol.) or collagen (10 μg/ml) was given in Table 1 using acetylsalicylic acid as the reference.
The 50% inhibitory concentration as shown in table means the concentration of a solution of the pyrazine derivative required for inhibiting the platelet aggregation to 50% when the platelet aggregation in the absence of a pyrazine derivative is taken as 100%.

cycloxygenase = target: T1, cycloxygenase (Oryctolagus cuniculus, UniProt O97554); experiment: Cycloxygenase inhibiting activity (washed platelets as cycloxygenase source); type: biochemical; conditions: washed rabbit platelets, 14C-labelled arachidonic acid, 37° C., 3 minutes; read-out: 50% Inhibitory concentration (cycloxygenase)
T1 construct: The washed platelets thus obtained were employed as a cycloxygenase source; from tissue; host or cells: washed rabbit blood platelets
T1 sequence (O97554 31-606): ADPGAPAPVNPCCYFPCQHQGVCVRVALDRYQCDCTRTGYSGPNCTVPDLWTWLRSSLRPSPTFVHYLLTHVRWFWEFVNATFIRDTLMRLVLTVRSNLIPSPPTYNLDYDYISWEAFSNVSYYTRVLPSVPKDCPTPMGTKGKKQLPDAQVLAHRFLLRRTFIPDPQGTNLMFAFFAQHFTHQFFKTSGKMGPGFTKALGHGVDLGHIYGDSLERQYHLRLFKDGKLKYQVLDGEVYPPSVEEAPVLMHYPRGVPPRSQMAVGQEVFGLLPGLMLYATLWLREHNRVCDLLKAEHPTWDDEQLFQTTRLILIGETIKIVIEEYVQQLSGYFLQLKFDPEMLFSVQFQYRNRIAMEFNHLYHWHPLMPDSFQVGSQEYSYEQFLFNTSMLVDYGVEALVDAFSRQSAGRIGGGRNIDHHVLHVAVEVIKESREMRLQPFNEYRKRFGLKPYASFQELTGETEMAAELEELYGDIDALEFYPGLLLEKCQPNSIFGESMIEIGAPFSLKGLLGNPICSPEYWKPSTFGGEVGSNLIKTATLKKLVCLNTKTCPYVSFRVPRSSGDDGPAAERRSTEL
Experimental: Nine volumes of blood was drawn from the abdominal artery of a rabbit using a syringe containing one volume of 3.8% solution of sodium citrate. Centrifugation of the blood afforded platelet-rich plasma. To the platelet-rich plasma was added 77 mM EDTA solution in a volume of 1/10 per volume of the plasma. The mixture was thoroughly mixed and centrifuged at 2500 rpm for 10 minutes. The supernatant was discarded, and the platelets were suspended in approximately 3 ml of a washing solution which was prepared by dissolving 134 mM of sodium chloride, 15 mM of trisaminomethane, 1 mM of EDTA and 5 mM of D-glucose in twice-distilled water with a pH adjusted with 1N hydrogen chloride to 7.4. The suspension was centrifuged at room temperature at 2000 rpm for 10 minutes. The supernatant was discarded, and the precipitated platelets were re-suspended in a phosphate buffer at pH 8.0 to adjust number of the platelets to 1×10^6 per μl.
The washed platelets thus obtained were employed as a cycloxygenase source.
To 3 μg of arachidonic acid and 0.2 μCi (1 μg) of ^14 C-labelled arachidonic acid placed in a glass-stoppered test tube was added one drop of a propylene glycol/ethanol solution (1:3 by volume). The ethanol was evaporated under nitrogen. To the residue were added 50 μl of a solution to be tested and then 450 μl of the washed platelets. The mixture was reacted at 37° C. for 3 minutes.
To the reaction mixture was added with ice cooling one drop of 1N hydrogen chloride to adjust the pH to 2-3. To the resulting mixture was added 2 ml of ethyl acetate, followed by extraction by shaking for 10 minutes and centrifugal separation at 4° C. at 2500 rpm for 10 minutes.
The supernatant was transferred to a flask and concentrated. The residue was dissolved in 100 μl of ethanol, and the entire solution was spotted on a silica gel thin plate (Merck, 60 F254).
The plate was developed by approximately 18 cm with a developer solution (chloroform/methanol/acetic acid/waters=70:8:1:0.8), followed by measurement by a radiochromatoscanner of the sum of radioactivities of prostaglandin F2α, thromboxan B2, […], prostaglandin D2 and HHT to determine the inhibiting activity.

[1] = aggregation induced by arachidonic acid (50 μmol.), rabbit PRP, 37° C., 3 min incubation, read-out: 50% aggregation inhibitory concentration, Arachidonic acid
[2] = aggregation induced by collagen (10 μg/ml), rabbit PRP, 37° C., 3 min incubation, read-out: 50% aggregation inhibitory concentration, Collagen

Structure (SMILES) | IC50 (platelet aggregation; [1]) [µM] | IC50 (platelet aggregation; [2]) [µM] | IC50 (cycloxygenase) [µM] | IC50 (platelet aggregation; read-out: 50% aggregation inhibitory concentration, Arachidonic acid) [µM] | IC50 (platelet aggregation; read-out: 50% aggregation inhibitory concentration, Collagen) [µM]
CC(=O)Oc1ccccc1C(=O)O [Aspirin, acetylsalicylic acid, reference compound] |  |  |  | 14 | 560
Cc1cnc(-c2ccc(Cl)cc2)c(-c2ccc(Cl)cc2)n1 [Example 1, 2,3-bis(p-chlorophenyl)-5-methylpyrazine] | 8.5 | 20 |  |  | 
COc1ccc(-c2ncc(C)nc2-c2ccc(OC)cc2)cc1 [Example 2, 2,3-bis(p-methoxyphenyl)-5-methylpyrazine] | 0.03 | 0.042 | 30 |  | 
c1ccc(Cc2cnc(-c3ccccc3)c(-c3ccccc3)n2)cc1 [Example 3, 2,3-diphenyl-5-benzylpyrazine] | 8 | 46 |  |  | 
COc1ccc(Cc2cnc(-c3ccccc3)c(-c3ccccc3)n2)cc1 [Example 4, 2,3-Diphenyl-5-(p-methoxybenzyl)pyrazine] | 1.7 | 35 | 220 |  | 
COc1cccc(Cc2cnc(-c3ccccc3)c(-c3ccccc3)n2)c1 [Example 5, 2,3-Diphenyl-5-(m-methoxybenzyl)pyrazine] | 4.5 | 14 |  |  | 

More lines, main results first:

IC50 (platelet aggregation; [1]) [µM] | IC50 (platelet aggregation; [2]) [µM] | IC50 (cycloxygenase) [µM] | Structure (SMILES) | IC50 (platelet aggregation; read-out: 50% aggregation inhibitory concentration, Arachidonic acid) [µM] | IC50 (platelet aggregation; read-out: 50% aggregation inhibitory concentration, Collagen) [µM]
0.2 | 5 |  | COc1ccc(-c2ncc(Cc3ccccc3)nc2-c2ccc(OC)cc2)cc1 [Example 6, 2,3-Bis(p-methoxyphenyl)-5-benzylpyrazine] |  | 
0.025 | 0.79 |  | COc1ccc(-c2ncc(C(C)C)nc2-c2ccc(OC)cc2)cc1 [Example 7, 2,3-Bis(p-methoxyphenyl)-5-isopropylpyrazine] |  | 
0.046 | 0.64 |  | CCc1cnc(-c2ccc(OC)cc2)c(-c2ccc(OC)cc2)n1 [Example 8, 2,3-bis(p-methoxyphenyl)-5-ethylpyrazine] |  | 
0.44 | 0.79 | 86 | COc1ccc(-c2ncc(Cc3cccs3)nc2-c2ccc(OC)cc2)cc1 [Example 9, 2,3-Bis(p-methoxyphenyl)-5-(2-thienylmethyl)pyrazine] |  | 
0.084 | 0.92 | 62 | COc1ccc(-c2nc(C)c(C)nc2-c2ccc(OC)cc2)cc1 [Example 10, 2,3-bis(p-methoxyphenyl)-5,6-dimethylpyrazine] |  | 
